This is an account of results in patent US20250230193A1, “CYCLIC COMPOUND HAVING SELECTIVE KRAS INHIBITORY EFFECT ON HRAS AND NRAS” (CHUGAI SEIYAKU KABUSHIKI KAISHA, priority 2022, published 2025).

Assay [1] concerns the target GDP-bound HRAS wild-type protein (Homo sapiens, UniProt P01112). Description: Binding to HRAS by surface plasmon resonance (SPR), Single Cycle Kinetics. The settings on record: SPR, GDP-bound HRAS wild-type vs GDP-bound KRAS wild-type. (In general: SPR reads the build-up and loss of mass on a sensor chip optically.)
Assay [2] concerns the target GDP-bound NRAS wild-type protein (Homo sapiens, UniProt P01111). Description: Binding to NRAS by surface plasmon resonance (SPR), Single Cycle Kinetics. Particulars: SPR, GDP-bound NRAS wild-type vs GDP-bound KRAS wild-type.

Chain of GDP-bound NRAS wild-type protein (P01111 whole entry): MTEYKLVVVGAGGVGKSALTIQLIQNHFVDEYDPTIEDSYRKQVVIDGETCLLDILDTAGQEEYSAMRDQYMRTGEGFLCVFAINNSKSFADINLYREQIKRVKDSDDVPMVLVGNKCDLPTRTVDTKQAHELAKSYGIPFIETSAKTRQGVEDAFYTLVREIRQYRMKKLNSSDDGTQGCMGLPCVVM
Chain of GDP-bound HRAS wild-type protein (P01112 whole entry): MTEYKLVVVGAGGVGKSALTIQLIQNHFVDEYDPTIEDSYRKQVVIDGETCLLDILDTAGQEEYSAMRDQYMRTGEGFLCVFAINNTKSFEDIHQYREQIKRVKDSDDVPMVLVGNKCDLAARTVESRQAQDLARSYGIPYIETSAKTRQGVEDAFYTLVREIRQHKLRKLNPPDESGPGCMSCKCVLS

Regarding `CCCOC[C@H]1C(=O)N[C@@H]([C@@H](C)CC)C(=O)N(C)CC(=O)N(C)[C@H]2C/C=C\CCN(C2=O)[C@@H](Cc2ccc(C)cc2)C(=O)N(C)CC(=O)N[C@@H](CCc2ccc(C(F)(F)F)c(OC)c2)C(=O)N2C[C@H](OCC)C[C@H]2C(=O)N(C)C2(CCC2)C(=O)N(C)[C@@H](C2CCCC2)C(=O)N(C)[C@H](C(=O)N(C)C)CC(=O)N1C` [PP2326], the “HRAS/KRAS (ratio of KD value with respect to HRAS to KD value with respect to KRAS)” value in assay [1] is “B (a compound having 3 or more and less than 10 is denoted as B)”. Moreover, the “NRAS/KRAS (ratio of KD value with respect to NRAS to KD value with respect to KRAS)” value in assay [2] is “A (a compound having 10 or more and less than 20 is denoted as A)”.
Take `CCCOC[C@H]1C(=O)N[C@@H]([C@@H](C)CC)C(=O)N(C2CC2)CC(=O)N(C)[C@H]2C/C=C\CCN(C2=O)[C@@H](Cc2ccc(C)cc2)C(=O)N(C)CC(=O)N[C@@H](CCc2ccc(C(F)(F)F)c(OC)c2)C(=O)N2C[C@H](OCC)C[C@H]2C(=O)N(C)C2(CCC2)C(=O)N(C)[C@@H](C(CC)CC)C(=O)N(C)[C@H](C(=O)N(C)C)CC(=O)N1C` [PP2327]: in assay [1], the “HRAS/KRAS (ratio of KD value with respect to HRAS to KD value with respect to KRAS)” value was “A (a compound having 10 or more and less than 20 is denoted as A)”. Also, the “NRAS/KRAS (ratio of KD value with respect to NRAS to KD value with respect to KRAS)” value in assay [2] is “A (a compound having 10 or more and less than 20 is denoted as A)”.
With `CCC[C@H]1C(=O)N[C@@H]([C@@H](C)CC)C(=O)N(C2CC2)CC(=O)N(C)[C@H]2C/C=C\CCN(C2=O)[C@@H](Cc2ccc(C)cc2)C(=O)N(C)CC(=O)N[C@@H](CCc2ccc(C(F)(F)F)c(OC)c2)C(=O)N2C[C@H](OCC)C[C@H]2C(=O)N(C)C2(CCC2)C(=O)N(C)[C@@H](C2CCCC2)C(=O)N(C)[C@H](C(=O)N(C)C)CC(=O)N1C` [PP2328, (2S,8S,12R,14S,20S,23S,27S,30S,36S,38Z)-20-cyclopentyl-32-cyclopropyl-12-ethoxy-8-[2-[3-methoxy-4-(trifluoromethyl)phenyl]ethyl]-N,N,4,16,19,22,26,35-octamethyl-30-[(1S)-1-methylpropyl]-3,6,9,15,18,21,25,28,31,34,42-undecaoxo-27-propyl-2-(p-tolylmethyl)spiro[1,4,7,10,16,19,22,26,29,32,35-undecazatricyclo[34.5.1.0^10,14]dotetracont-38-ene-17,1′-cyclobutane]-23-carboxamide], the “HRAS/KRAS (ratio of KD value with respect to HRAS to KD value with respect to KRAS)” value in assay [1] is “A (a compound having 10 or more and less than 20 is denoted as A)”. The “NRAS/KRAS (ratio of KD value with respect to NRAS to KD value with respect to KRAS)” value in assay [2] is “A (a compound having 10 or more and less than 20 is denoted as A)”.
As for `CCC[C@H]1C(=O)N[C@@H]([C@@H](C)CC)C(=O)N2CCC[C@H]2C(=O)N(C)[C@H]2C/C=C\CCN(C2=O)[C@@H](Cc2ccc(C)cc2)C(=O)N(C)CC(=O)N[C@@H](CCc2ccc(C(F)(F)F)c(OC)c2)C(=O)N2C[C@H](OCC)C[C@H]2C(=O)N(C)C2(CCC2)C(=O)N(C)[C@@H](C(CC)CC)C(=O)N(C)[C@H](C(=O)N(C)C)CC(=O)N1C` [PP2329], in assay [1], the “HRAS/KRAS (ratio of KD value with respect to HRAS to KD value with respect to KRAS)” value is “A (a compound having 10 or more and less than 20 is denoted as A)”. Also, the “NRAS/KRAS (ratio of KD value with respect to NRAS to KD value with respect to KRAS)” value in assay [2] is “A (a compound having 10 or more and less than 20 is denoted as A)”.
Regarding `CCCOC[C@H]1C(=O)N[C@@H]([C@@H](C)CC)C(=O)N(C2CC2)CC(=O)N(C)[C@H]2C/C=C\CCN(C2=O)[C@@H](Cc2ccc(C)cc2)C(=O)N(C)CC(=O)N[C@@H](CCc2ccc(C(F)(F)F)c(OC)c2)C(=O)N2C[C@H](OCC)C[C@H]2C(=O)N(C)C2(CCC2)C(=O)N(C)[C@@H](C2CCCC2)C(=O)N(C)[C@H](C(=O)N(C)C)CC(=O)N1C` [PP2330], the “HRAS/KRAS (ratio of KD value with respect to HRAS to KD value with respect to KRAS)” value in assay [1] was “A (a compound having 10 or more and less than 20 is denoted as A)”. The “NRAS/KRAS (ratio of KD value with respect to NRAS to KD value with respect to KRAS)” value in assay [2] was “A (a compound having 10 or more and less than 20 is denoted as A)”.
As for `CCCOC[C@H]1C(=O)N[C@@H]([C@@H](C)CC)C(=O)N2CCC[C@H]2C(=O)N(C)[C@H]2C/C=C\CCN(C2=O)[C@@H](Cc2ccc(C)cc2)C(=O)N(C)CC(=O)N[C@@H](CCc2ccc(C(F)(F)F)c(OC)c2)C(=O)N2C[C@H](OCC)C[C@H]2C(=O)N(C)C2(CCC2)C(=O)N(C)[C@@H](C(CC)CC)C(=O)N(C)[C@H](C(=O)N(C)C)CC(=O)N1C` [PP2331], the “HRAS/KRAS (ratio of KD value with respect to HRAS to KD value with respect to KRAS)” value in assay [1] is “A (a compound having 10 or more and less than 20 is denoted as A)”. For the same compound, in assay [2], the “NRAS/KRAS (ratio of KD value with respect to NRAS to KD value with respect to KRAS)” value is “AA (a compound having 20 or more is denoted as AA)”.
With `CCC[C@H]1C(=O)N[C@@H]([C@@H](C)CC)C(=O)N2CCC[C@H]2C(=O)N(C)[C@H]2C/C=C\CCN(C2=O)[C@@H](Cc2ccc(C)cc2)C(=O)N(C)CC(=O)N[C@@H](CCc2ccc(C(F)(F)F)c(OC)c2)C(=O)N2C[C@H](OCC)C[C@H]2C(=O)N(C)C2(CCC2)C(=O)N(C)[C@@H](C2CCCC2)C(=O)N(C)[C@H](C(=O)N(C)C)CC(=O)N1C` [PP2332], in assay [1], the “HRAS/KRAS (ratio of KD value with respect to HRAS to KD value with respect to KRAS)” value is “B (a compound having 3 or more and less than 10 is denoted as B)”. In assay [2], the “NRAS/KRAS (ratio of KD value with respect to NRAS to KD value with respect to KRAS)” value was “A (a compound having 10 or more and less than 20 is denoted as A)”.
Regarding `CCC[C@H]1C(=O)N[C@@H]([C@@H](C)CC)C(=O)N(C)CC(=O)N(C)[C@H]2C/C=C\CCN(C2=O)[C@@H](CC2CCCCC2)C(=O)N(C)CC(=O)N[C@@H](CCc2ccc(C(F)(F)F)c(OC)c2)C(=O)N2C[C@H](OCC)C[C@H]2C(=O)N(C)C2(CCC2)C(=O)N(C)[C@@H](C(CC)CC)C(=O)N(C)[C@H](C(=O)N(C)C)CC(=O)N1C` [PP2333], the “HRAS/KRAS (ratio of KD value with respect to HRAS to KD value with respect to KRAS)” value in assay [1] was “A (a compound having 10 or more and less than 20 is denoted as A)”. For the same compound, the “NRAS/KRAS (ratio of KD value with respect to NRAS to KD value with respect to KRAS)” value in assay [2] is “A (a compound having 10 or more and less than 20 is denoted as A)”.
On to `CCCOC[C@H]1C(=O)N[C@@H]([C@@H](C)CC)C(=O)N2CCC[C@H]2C(=O)N(C)[C@H]2C/C=C\CCN(C2=O)[C@@H](Cc2ccc(C)cc2)C(=O)N(C)CC(=O)N[C@@H](CCc2ccc(C(F)(F)F)c(OC)c2)C(=O)N2C[C@H](OCC)C[C@H]2C(=O)N(C)C2(CCC2)C(=O)N(C)[C@@H](C2CCCC2)C(=O)N(C)[C@H](C(=O)N(C)C)CC(=O)N1C` [PP2334], for which, in assay [1], the “HRAS/KRAS (ratio of KD value with respect to HRAS to KD value with respect to KRAS)” value is “B (a compound having 3 or more and less than 10 is denoted as B)”. Also, the “NRAS/KRAS (ratio of KD value with respect to NRAS to KD value with respect to KRAS)” value in assay [2] is “A (a compound having 10 or more and less than 20 is denoted as A)”.
As to `CCO[C@@H]1C[C@H]2C(=O)N(C)C3(CCC3)C(=O)N(C)[C@@H](C(CC)CC)C(=O)N(C)[C@H](C(=O)N(C)C)CC(=O)N(C)[C@@H](COC)C(=O)N[C@@H]([C@@H](C)CC)C(=O)N(C)CC(=O)N(C)[C@H]3C/C=C\CCN(C3=O)[C@@H](CC3CCCCC3)C(=O)N(C)CC(=O)N[C@@H](CCc3ccc(C(F)(F)F)c(OC)c3)C(=O)N2C1` [PP2335], the “HRAS/KRAS (ratio of KD value with respect to HRAS to KD value with respect to KRAS)” value in assay [1] is “A (a compound having 10 or more and less than 20 is denoted as A)”. Also, the “NRAS/KRAS (ratio of KD value with respect to NRAS to KD value with respect to KRAS)” value in assay [2] is “A (a compound having 10 or more and less than 20 is denoted as A)”.
